Experimental data from patent US20240382509A1, “Cannabinoids C- and O-glycosides possessing anti-proliferative and anti-metastatic properties and process for preparation thereof” (Council of Scientific and Industrial Research, priority 2021, published 2024).

How the values were obtained:
MIAPaCa-2 cells = test: Wound healing assay; type: cell-based, human; conditions: MIAPaCa-2, 1, 2 and 3 μM, 36 h, compared to 2, 2b, 4, 4a, 4b
Protocol: Wound healing assay. MIAPaCa-2 cells (1×10^6) were seeded onto 6 well plates and grown up to more than 90% confluency, and wounds were created with sterile pipette tip (20-200 μL), and the media was replaced with serum-free media. Subsequently, the cells were treated with vehicle (DMSO), compounds 3 μM of 2 and 4, and their derivatives, i.e., 1, 2 and 3 μM of 2a, 2b, 4a, 4b for 36 h. Upon termination, the cells were washed with PBS, and images were captured under a microscope at 20× magnification (FIG. 4).

HCT-116 cells = test: Chromosome isolation and staining (chromosomal stability); type: cell-based; conditions: HCT-116, 2a in combination with 5FU, compared to vehicle/750 nM 5FU/3 μM 2a
Description: The effect of the compound 2a in combination with DNA damaging drug 5-Fluorouracil in colon adenocarcinoma cells was studied. […] Consequently, the major repair factor RAD-51 got diminished as compared to 5FU alone treated lane. The immunoblot results also depicted the downmodulation of cellular survival factor BCL-2 and subsequent upregulation of proapoptotic protein Bax (FIG. 8a). […] Moreover, the effect of the combinatorial treatment on chromosomal stability in HCT-116 cells by chromosome isolation and staining was studied.

[1] = MTT cell viability assay, fR2 normal epithelial cells; type: cell-based, human; conditions: human, fR2 normal epithelial cells; MTT, 48 h; normal epithelial cell line; read-out: Cytotoxicity (IC50) fR2
Protocol: (§1) Cell viability assay: The cell viability was determined by the standard MTT assay method. Briefly, Panc-1, HCT-116, A549, PC3, MIAPaca-2, HT-29, MDA-MB-231, MCF7 cells, and fR2cells were seeded in 96 well tissue culture plates (Nunc) at a density of 4×10^3 cells per well and treated with varying concentrations of the test compounds in triplicates. DMSO was taken as a vehicle, and its final concentration was maintained at 0.2% in the culture medium. Doxorubicin was employed as a positive control. After 44 h of incubation, MTT dye solution was added into the medium, and cells were incubated for another 4 h at 37° C. in 5% CO2. The amount of colored formazan derivatives formed was measured by taking optical density (OD) using a microplate reader (TECAN, Infinite M200 Pro) at 570 nm, and the percentage of cell viability was calculated. The IC50 values were calculated using GraphPad Prism software (Version 5.0).

fR2 cells = test: as above; type: cell-based, human; conditions: in vitro
Protocol: as §1

MDA-MB-231 cells = test: In-situ gelatin degradation assay, MDA-MB-231; type: cell-based, human; conditions: MDA-MB-231, 1.5 μM to 5 μM
Protocol: Matrix gelatin degradation assay. In-situ gelatin degradation assay is performed to detect the formation of migratory structures (invadopodia & filopodia). Briefly, glass coverslips were coated with gelatin tagged with FITC, and the coated coverslips were dipped into 70% ethanol and immersed into a 6 well plate filled with RPMI and the coverslips were kept in a CO2 incubator for 1-2 h for preconditioning. Later on, both MIAPaCa-2 and MDA-MB-231 cells were seeded onto the coverslips and kept overnight for attachment. Treatment of the compound 2a (0.5, 1.5, 3 & 5 μM) was given on the next day and continued for 36 h. Upon termination, the coverslips were washed with ice-cold PBS, and then it was fixed in 4% paraformaldehyde for 15 min and then washed with PBS. Finally, the coverslips were mounted using mounting media consist of glycerol, and the edges were sealed with nail polish. After drying, the slides were observed under a fluorescence microscope to assess a degraded area's presence. The fluorescent images were captured, and the images were further processed in Image J software (Version 1.50i) to quantify the degraded area in each field.
Now to study its anti-migratory and anti-metastatic role in another highly metastatic cancer cells of breast origin (MDA-MB 231) the IC50 value was determined by performing MTT assay (FIG. 6a).

[2] = system: Snail-1, Twist-1, Vimentin and E-cadherin in MIAPaCa-2 cells; test: Western blot of EMT markers; type: cell-based, human; conditions: 36 h, immunoblot
Protocol: Western Blot analysis. Briefly, MIAPaCa-2 cells were seeded in a 60 mm petri dish and maintained up to 70% confluency; afterward, the cells were treated with compound 2a (0.5, 1.5, 3 & 5 μM) for 36 h. After treatment, the cells were harvested washed thrice with ice-cold PBS and were subjected to protein lysis with lysis buffer (HEPES 1 mM/L, KCl 60 mM/L, NP-40 0.3%, EDTA 1 mM/L, DTT 1 mM/L, sodium orthovanadate 1 mM/L, PMSF 0.1 mM/L and cocktail protease inhibitor). The lysis product was centrifuged at 12000 rpm for 15 min at 4° C. to remove the cellular debris, and the supernatants were collected. Total protein was estimated with the help of the Bradford method. An equal amount of protein was subjected to SDS-PAGE, and consequently, after the protein was separated on SDS-PAGE based on their molecular weight, they were transferred onto the PVDF membrane. The membrane was blocked with 5% BSA and incubated in primary antibody prepared in 5% BSA (dilution ranging from 1:1000-1:2000) for 2-3 h. […] After washing with TBST, the protein expression was quantified by adding a chemiluminescent substrate on the membrane, and the signal obtained was captured in Biomax light x-ray films.
Now this particular derivative was further analysed for its ability to inhibit the molecular signatures of EMT. […]

MCF-7 cells = test: MTT cell viability assay, MCF-7; type: cell-based; conditions: Homo sapiens, MCF7, 48 h, read-out: Cytotoxicity (IC50) MCF-7, MTT, 48 h; breast cancer cell of epithelial origin
Protocol: as §1

Panc-1 cells = test: MTT cell viability assay, Panc-1; type: cell-based; conditions: Homo sapiens, PANC-1, 48 h, read-out: Cytotoxicity (IC50) Panc-1, MTT, 48 h; pancreatic cancer cells
Protocol: as §1

[3] = system: human colorectal adenocarcinoma cell line (HT-29); test: MTT cell viability assay, HT-29; type: cell-based; conditions: Homo sapiens, HT-29, 48 h, read-out: Cytotoxicity (IC50) HT-29, MTT, 48 h; human colorectal adenocarcinoma cell line
Protocol: as §1

CCCCCc1cc(O[C@@H]2OC(CO)[C@@H](O)C(O)C2O)c2c(c1)OC(C)(C)[C@@H]1CCC(C)=C[C@@H]21 (stereo partly drawn) [Compound 2a, Δ^9-tetrahydrocannabinol-1-O-β-D-glucopyranoside]
anti-migratory properties in wound healing assay (MIAPaCa-2 cells): most prominent anti-migratory properties | chromosomal aberrations (HCT-116 cells): significantly increases chromosomal abbreations | IC50 at 48 h [1]: > 100 µM | toxicity towards normal human breast epithelial cells (fR2 cells): non-toxic | gelatin degradation (MDA-MB-231 cells): significant decrease of gelatin degradation | expression of Snail-1, Twist-1 and Vimentin ([2]; MIAPaCa-2, 0.5, 1.5, 3 and 5 μM): significant down modulation | expression of E-cadherin ([2]; MIAPaCa-2, from 1.5 to 5 μM): upregulated | IC50 (MCF-7 cells): 15.4 µM | IC50 (Panc-1 cells): 3 µM | IC50 [3]: 3.16 µM
